Measured values: PubChem BioAssay AID2060893 (Molecular Pharmacology Branch, DTP, NCI, 2025)
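Note: spheroids exposed to agents for seven days before readout.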

What follows are compounds tested on K86415-001-R-J1-PDC complex spheroids, viability (assay: Anticancer human tumor K86415-001-R-J1-PDC patient-derived lung adenocarcinoma cell line growth inhibition [RAS]). Settings: second compound 0.0316 µM; first compound 0.316 µM; stronger effect = lower value.
Method in brief: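 Multi-cell-type spheroids: tumor cells plus HUVEC endothelial cells and mesenchymal stem cells. RAS-pathway inhibitors were combined with targeted agents, each dosed in half-log steps down from clinical Cmax, or from 10 microM when Cmax was unknown.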
`Cc1nc(N2CCC3(CC2)COC(C)C3N)c(CO)nc1Sc1ccnc(N)c1Cl` (stereo unspecified) + C=CC(=O)N1CCN(c2nc(OCC3CCCN3C)nc3c(F)c(-c4nc(N)cc(C)c4C(F)(F)F)c(Cl)cc23)C(C)C1 showed a viability, T/C of 4.4%. `NC1c2ccccc2OC12CCN(c1cnc3c(N4CCCc5ncccc54)n[nH]c3n1)CC2` (stereo unspecified) + C=CC(=O)N1CCN(c2nc(OCC3CCCN3C)nc3c(F)c(-c4nc(N)cc(C)c4C(F)(F)F)c(Cl)cc23)C(C)C1 showed a viability, T/C of 4.64%.

Same assay, conditions: second compound 0.0316 µM; first compound 1 µM; stronger effect = lower value
For `CC1(O)CCCC1n1c(=O)c(C(F)F)cc2cnc(NC3CCN(S(C)(=O)=O)CC3)nc21` (stereo unspecified) + C=CC(=O)N1CCN(c2nc(OCC3CCCN3C)nc3c(F)c(-c4nc(N)cc(C)c4C(F)(F)F)c(Cl)cc23)C(C)C1, the viability, T/C was 14.8%. `CCC(CC)c1cc(NC2CCC(N)C2)n2nccc2n1` (stereo unspecified) + C=CC(=O)N1CCN(c2nc(OCC3CCCN3C)nc3c(F)c(-c4nc(N)cc(C)c4C(F)(F)F)c(Cl)cc23)C(C)C1 showed a viability, T/C of 15.9%. For `CCN1CCN(Cc2ccc(Nc3ncc(F)c(-c4cc(F)c5nc(C)n(C(C)C)c5c4)n3)nc2)CC1` + C=CC(=O)N1CCN(c2nc(OCC3CCCN3C)nc3c(F)c(-c4nc(N)cc(C)c4C(F)(F)F)c(Cl)cc23)C(C)C1, the viability, T/C was 18.5%. Compound `Cc1nc(N2CCC3(CC2)COC(C)C3N)c(CO)nc1Sc1ccnc(N)c1Cl` (stereo unspecified) + C=CC(=O)N1CCN(c2nc(OCC3CCCN3C)nc3c(F)c(-c4nc(N)cc(C)c4C(F)(F)F)c(Cl)cc23)C(C)C1 has a viability, T/C of 3.81%. `NC1c2ccccc2OC12CCN(c1cnc3c(N4CCCc5ncccc54)n[nH]c3n1)CC2` (stereo unspecified) + C=CC(=O)N1CCN(c2nc(OCC3CCCN3C)nc3c(F)c(-c4nc(N)cc(C)c4C(F)(F)F)c(Cl)cc23)C(C)C1 showed a viability, T/C of 4.27%.

Same assay, conditions: second compound 0.0316 µM; first compound 3.16 µM; stronger effect = lower value
`CC1(O)CCCC1n1c(=O)c(C(F)F)cc2cnc(NC3CCN(S(C)(=O)=O)CC3)nc21` (stereo unspecified) + C=CC(=O)N1CCN(c2nc(OCC3CCCN3C)nc3c(F)c(-c4nc(N)cc(C)c4C(F)(F)F)c(Cl)cc23)C(C)C1 was tested, and the viability, T/C was 16.2%. Compound `CCC(CC)c1cc(NC2CCC(N)C2)n2nccc2n1` (stereo unspecified) + C=CC(=O)N1CCN(c2nc(OCC3CCCN3C)nc3c(F)c(-c4nc(N)cc(C)c4C(F)(F)F)c(Cl)cc23)C(C)C1 has a viability, T/C of 3.17%. For `Cc1nc(N2CCC3(CC2)COC(C)C3N)c(CO)nc1Sc1ccnc(N)c1Cl` (stereo unspecified) + C=CC(=O)N1CCN(c2nc(OCC3CCCN3C)nc3c(F)c(-c4nc(N)cc(C)c4C(F)(F)F)c(Cl)cc23)C(C)C1, the viability, T/C was 3.74%. `NC1c2ccccc2OC12CCN(c1cnc3c(N4CCCc5ncccc54)n[nH]c3n1)CC2` (stereo unspecified) + C=CC(=O)N1CCN(c2nc(OCC3CCCN3C)nc3c(F)c(-c4nc(N)cc(C)c4C(F)(F)F)c(Cl)cc23)C(C)C1 was tested, and the viability, T/C was 4.76%.

Same assay, conditions: second compound 0.0316 µM; first compound 10 µM; stronger effect = lower value
`CC1(O)CCCC1n1c(=O)c(C(F)F)cc2cnc(NC3CCN(S(C)(=O)=O)CC3)nc21` (stereo unspecified) + C=CC(=O)N1CCN(c2nc(OCC3CCCN3C)nc3c(F)c(-c4nc(N)cc(C)c4C(F)(F)F)c(Cl)cc23)C(C)C1 was tested, and the viability, T/C was 4.92%. Work on `CCC(CC)c1cc(NC2CCC(N)C2)n2nccc2n1` (stereo unspecified) + C=CC(=O)N1CCN(c2nc(OCC3CCCN3C)nc3c(F)c(-c4nc(N)cc(C)c4C(F)(F)F)c(Cl)cc23)C(C)C1 yielded a viability, T/C of 2.7%. Compound `Cc1nc(N2CCC3(CC2)COC(C)C3N)c(CO)nc1Sc1ccnc(N)c1Cl` (stereo unspecified) + C=CC(=O)N1CCN(c2nc(OCC3CCCN3C)nc3c(F)c(-c4nc(N)cc(C)c4C(F)(F)F)c(Cl)cc23)C(C)C1 has a viability, T/C of 3.64%. `NC1c2ccccc2OC12CCN(c1cnc3c(N4CCCc5ncccc54)n[nH]c3n1)CC2` (stereo unspecified) + C=CC(=O)N1CCN(c2nc(OCC3CCCN3C)nc3c(F)c(-c4nc(N)cc(C)c4C(F)(F)F)c(Cl)cc23)C(C)C1 was tested, and the viability, T/C was 5.5%.

Same assay, conditions: second compound 0.1 µM; first compound 0.00316 µM; stronger effect = lower value
Compound `CCN1CCN(Cc2ccc(Nc3ncc(F)c(-c4cc(F)c5nc(C)n(C(C)C)c5c4)n3)nc2)CC1` + C=CC(=O)N1CCN(c2nc(OCC3CCCN3C)nc3c(F)c(-c4nc(N)cc(C)c4C(F)(F)F)c(Cl)cc23)C(C)C1 has a viability, T/C of 10.1%.

Same assay, conditions: second compound 0.1 µM; first compound 0.01 µM; stronger effect = lower value
For `CCN1CCN(Cc2ccc(Nc3ncc(F)c(-c4cc(F)c5nc(C)n(C(C)C)c5c4)n3)nc2)CC1` + C=CC(=O)N1CCN(c2nc(OCC3CCCN3C)nc3c(F)c(-c4nc(N)cc(C)c4C(F)(F)F)c(Cl)cc23)C(C)C1, the viability, T/C was 10.5%.

Same assay, conditions: second compound 0.1 µM; first compound 0.0316 µM; stronger effect = lower value
With `CC1(O)CCCC1n1c(=O)c(C(F)F)cc2cnc(NC3CCN(S(C)(=O)=O)CC3)nc21` (stereo unspecified) + C=CC(=O)N1CCN(c2nc(OCC3CCCN3C)nc3c(F)c(-c4nc(N)cc(C)c4C(F)(F)F)c(Cl)cc23)C(C)C1 the viability, T/C was 12.1%. With `CCC(CC)c1cc(NC2CCC(N)C2)n2nccc2n1` (stereo unspecified) + C=CC(=O)N1CCN(c2nc(OCC3CCCN3C)nc3c(F)c(-c4nc(N)cc(C)c4C(F)(F)F)c(Cl)cc23)C(C)C1 the viability, T/C was 10.3%. Compound `CCN1CCN(Cc2ccc(Nc3ncc(F)c(-c4cc(F)c5nc(C)n(C(C)C)c5c4)n3)nc2)CC1` + C=CC(=O)N1CCN(c2nc(OCC3CCCN3C)nc3c(F)c(-c4nc(N)cc(C)c4C(F)(F)F)c(Cl)cc23)C(C)C1 has a viability, T/C of 9.47%. Work on `Cc1nc(N2CCC3(CC2)COC(C)C3N)c(CO)nc1Sc1ccnc(N)c1Cl` (stereo unspecified) + C=CC(=O)N1CCN(c2nc(OCC3CCCN3C)nc3c(F)c(-c4nc(N)cc(C)c4C(F)(F)F)c(Cl)cc23)C(C)C1 yielded a viability, T/C of 8.22%. In the case of `NC1c2ccccc2OC12CCN(c1cnc3c(N4CCCc5ncccc54)n[nH]c3n1)CC2` (stereo unspecified) + C=CC(=O)N1CCN(c2nc(OCC3CCCN3C)nc3c(F)c(-c4nc(N)cc(C)c4C(F)(F)F)c(Cl)cc23)C(C)C1, the viability, T/C was 5.65%.

Same assay, conditions: second compound 0.1 µM; first compound 0.1 µM; stronger effect = lower value
`CC1(O)CCCC1n1c(=O)c(C(F)F)cc2cnc(NC3CCN(S(C)(=O)=O)CC3)nc21` (stereo unspecified) + C=CC(=O)N1CCN(c2nc(OCC3CCCN3C)nc3c(F)c(-c4nc(N)cc(C)c4C(F)(F)F)c(Cl)cc23)C(C)C1 was tested, and the viability, T/C was 10.8%. With `CCC(CC)c1cc(NC2CCC(N)C2)n2nccc2n1` (stereo unspecified) + C=CC(=O)N1CCN(c2nc(OCC3CCCN3C)nc3c(F)c(-c4nc(N)cc(C)c4C(F)(F)F)c(Cl)cc23)C(C)C1 the viability, T/C was 12%. In the case of `CCN1CCN(Cc2ccc(Nc3ncc(F)c(-c4cc(F)c5nc(C)n(C(C)C)c5c4)n3)nc2)CC1` + C=CC(=O)N1CCN(c2nc(OCC3CCCN3C)nc3c(F)c(-c4nc(N)cc(C)c4C(F)(F)F)c(Cl)cc23)C(C)C1, the viability, T/C was 8.04%. `Cc1nc(N2CCC3(CC2)COC(C)C3N)c(CO)nc1Sc1ccnc(N)c1Cl` (stereo unspecified) + C=CC(=O)N1CCN(c2nc(OCC3CCCN3C)nc3c(F)c(-c4nc(N)cc(C)c4C(F)(F)F)c(Cl)cc23)C(C)C1 gave a viability, T/C of 5.86%.
